Assay [1] has as its system glomerular human IgA1 deposition. Description: Passive mouse model of IgA deposition (human IgA1 injection), glomerular immunofluorescence and blood IgA1. The class given is in vivo, BALB/c mice. As to conditions: mice, 200 mg/kg s.c. 2 h before human IgA1 injection, n=6; buffer 2293±163. On the procedure:
(§1) To establish the passive rat model, 5 mg/kg.BW recombinant rat rIgA, which contained a fraction of poly-rIgA, were i.v. injected daily to six 14-weeks old male Wistar rats (Charles River Labs, USA) for 5 consecutive days. Every day, three rats in each group had received a subcutaneous dose of either 250 mg/kg cysteamine, or buffer control, two hours before the rIgA injection. Twenty-four hours after the last injection of rIgA, kidneys were collected for immunofluorescence detection of deposits with goat-anti-rat IgA antibody (Cat: STAR111, Biorad laboratory). Similarly, a passive IgA nephrophathy mouse model was established by injecting 35 mg/kg purified human IgA1 in BALB/c mice (Charles River Labs). Two hours before IgA1 injection, six mice in each experimental group had each received a pretreatment dose of either 200 mg/kg cysteamine, or PBS, via subcutaneous injection. Two and a half hours after human IgA1 injection, kidneys were harvested, and specimens were stained with FITC-conjugated anti-human IgA antibody (Cat: 2050-02, SouthernBiotech). Plasma samples were collected at 0.5 h, 1 h and 2 h after IgA1 injection of all mice.
(§2) Frozen tissues were sectioned at 4 μm for IgA detection using goat anti-rat IgA (Cat: STAR111, Bio-Rad Laboratories) at 1:100, or anti-human IgA antibody (Cat: 2050-02, […]) at 1:80 dilution. […]

The test system of assay [2] is glomerular rIgA deposition. The experiment in a line: Passive rat model of IgA deposition (rat rIgA injection), glomerular immunofluorescence. It counts as in vivo, Wistar rats. As to conditions: rats, 250 mg/kg s.c. daily 2 h before rIgA i.v., 5 days, n=3; control 1384±290. The method, then:
as §1, §2

Assay [3] has as its system natural IgA1 assembly (two heavy chains and two light chains connected via disulfide bonds). Description: Ex vivo study: integrity of natural IgA assembly under thiol/reducing agents. It counts as biochemical. The method, then:
The overall complex size of IgA aggregates was determined either by size-exclusion chromatography (SEC: Superdex 200 Increase 10/300 by GL Cytiva), or by SDS-PAGE. For evaluating the involvement of intermolecular disulfide connectivity in IgA complexes, IgA samples were treated with either reducing agents, such as DTT, TCEP or reduced glutathione (Sigma), or interventional drugs, such as cysteamine (Sigma), WR-1065 (Sigma) and N-Acetyl-L-cysteine (VWR Chemicals) in phosphate-buffered saline (PBS) pH7.4. Before running on SEC, samples were treated with the drugs at indicated concentrations at 37° C. for one hour.
Proteins in sample buffer (Bio-Rad Laboratories, Hercules, CA, USA) with or without TCEP (for reducing or nonreducing condition, respectively) were resolved by 4-12% SDS-PAGE (Bio-Rad Laboratories). IgA bands were subsequently visualized either by staining with GelCode Blue (Thermo Fisher Scientific), or by Western blotting on PVDF membrane. For Western blotting, 5% non-fat milk was used in blocking for one hour at room temperature. The membrane was then incubated with mouse anti-Histag antibody (Thermo Scientific), or HRP-conjugated goat anti-rat IgA α-chain antibody (Cat. ab97185, Abcam, UK), or goat anti-human IgA HRP antibody (Cat: 2050-05, SouthernBiotech) for detecting rat or human IgA (Fc), respectively. The membrane was developed using the Clarity™ ECL substrate (Bio-Rad Laboratories, CA, USA).

Molecules are shown by their SMILES.

Consider `NCCS` [cysteamine], for which the “glomerular IgA1 intensity (Mean±SEM)” value in assay [1] amounted to 870±193. Also, in assay [2], the “quantitation of rIgA deposit in glomeruli (Mean±SEM immunofluorescence intensity)” value stood at 523±76. For the same compound, the “disruption of natural IgA assembly / normal pairing of IgA heavy chains” value in assay [3] was “did not cause unwanted disruption of natural IgA1 assembly”.
